# What was measured:
# [1] = system: AGS gastric carcinoma cells [heterozygous G12D]; assay: Cancer cell line proliferation (CellTiter-Glo), AGS; format: cell-based; settings: Homo sapiens, 72 hr treatment, read-out: AGS CTG (EC50)
# How it was run: (§1)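 Luminescent ATP read-out (CellTiter-Glo) after 72 hr drug exposure gives the EC50. Test compounds were prepared as 3-fold serial dilutions between 20 μM and 1.02 nM, with 0.5% DMSO final per well.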
# [2] = system: ASPC1 pancreatic adenocarcinoma cells [homozygous G12D]; assay: Cancer cell line proliferation (CellTiter-Glo), ASPC1; format: cell-based; settings: Homo sapiens, ASPC1, 72 h, 72 hr treatment, read-out: ASPC-1 CTG (EC50)
# How it was run: as §1
# [3] = system: SW1990 pancreatic adenocarcinoma cells [homozygous G12D]; assay: Cancer cell line proliferation (CellTiter-Glo), SW1990; format: cell-based; settings: Homo sapiens, 72 hr treatment, read-out: SW1990 CTG (EC50)
# Experimental: The following cancer cell lines were employed: AGS gastric carcinoma [heterozygous G12D](ATCC, CRL-1739); A-427 lung carcinoma [heterozygous G12D](ATCC, HTB-53); ASPC1 pancreatic adenocarcinoma [homozygous G12D](ATCC, CRL-1682) and SW1990 pancreatic adenocarcinoma [homozygous G12D](ATCC CRL-2172). Cell lines were cultured essentially according to ATCC recommendations.
# AGS, A-427, ASPC1, SW1990, and GP2D cells were plated in 96-well tissue culture plates at 4,000 cells/well and incubated at 37° C./5% CO2 for 72 hr in 100 μl of media. 3-fold serial dilutions of each test compound were prepared ranging from 20 μM to 1.02 nM. Each cell line was then treated with test compounds at various concentrations with a final concentration of 0.5% DMSO/well, and then incubated at 37° C./5% CO2 for 72 hr. 100 µl of CellTiter-Glo® Reagent (Promega Corporation, Madison, WI) was added to each well and processed according manufacturer's protocol. Results were analyzed and EC50 values were calculated in GraphPad 7 software.
# [4] = system: A-427 lung carcinoma cells [heterozygous G12D]; assay: Cancer cell line proliferation (CellTiter-Glo), A-427; format: cell-based; settings: Homo sapiens, A-427 cells, 72 hr treatment, read-out: A427 CTG (EC50)
# How it was run: as §1
# [5] = biological target: T1, KRAS(G12D)/SOS1 (Homo sapiens, UniProt P01116, G12D); assay: KRAS(G12D)/SOS1 homogeneous time-resolved fluorescence (HTRF) assay; format: binding; settings: absence of GTP; 4° C., 3 hr
# T1 construct: purchased Cisbio 63ADK000CB17PEH
# How it was run: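 HTRF kit assay of compound-blocked KRAS(G12D)–SOS1 interaction, run without GTP. Compounds were tested as 3-fold dilutions from 20 µM to 1.02 nM and incubated with the reaction components for 3 hr at 4 °C, sealed. IC50 was taken as the concentration giving 50% of maximal inhibition.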
# T1 sequence (P01116 1-188 isoform P01116-2 G12D): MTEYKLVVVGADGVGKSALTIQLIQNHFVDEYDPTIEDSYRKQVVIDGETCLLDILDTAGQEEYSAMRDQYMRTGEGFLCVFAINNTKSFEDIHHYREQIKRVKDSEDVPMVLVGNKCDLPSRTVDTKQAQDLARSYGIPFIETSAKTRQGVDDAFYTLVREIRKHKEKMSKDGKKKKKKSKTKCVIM
Structure (SMILES),EC50 [1] [µM],EC50 [2] [µM],EC50 [3] [µM],EC50 [4] [µM],IC50 [5] [µM]
CC(C)c1cc(C(=O)N2Cc3ccc(CN4CCN([C@H]5C[C@@H](COc6nc(N7CC8CCC(C7)N8)c7cnc(-c8cc(O)cc9ccccc89)c(F)c7n6)N(C)C5)CC4)cc3C2)c(O)cc1O [Compound 25],< 0.1,> 1,< 0.1,0.1 to 1,< 0.1
CC(C)c1cc(C(=O)N2Cc3ccc(CN4CCN([C@H]5C[C@@H](COc6nc(N7CC8CCC(C7)N8)c7cnc(-c8cccc9ccccc89)c(F)c7n6)N(C)C5)CC4)cc3C2)c(O)cc1O [Compound 35],0.1 to 1,0.1 to 1,0.1 to 1,0.1 to 1,> 1
C#Cc1cccc2cccc(-c3ncc4c(N5CC6CCC(C5)N6)nc(OCC5(CN6CCN(Cc7ccc(-n8c(C(=O)NCC(F)(F)F)nnc8-c8cc(C(C)C)c(O)cc8O)cc7)CC6)CC5)nc4c3F)c12 [Compound 54],< 0.1,0.1 to 1,< 0.1,0.1 to 1,< 0.1
C#Cc1cccc2cccc(-c3ncc4c(N5CC6CCC(C5)N6)nc(OCC5(CN6CCN(Cc7ccc(-n8c(C(=O)NC(C)C(F)(F)F)nnc8-c8cc(C(C)C)c(O)cc8O)cc7)CC6)CC5)nc4c3F)c12 (stereo not shown) [Compound 55],0.1 to 1,0.1 to 1,0.1 to 1,0.1 to 1,0.1 to 1
CCNC(=O)c1nnc(-c2cc(C(C)C)c(O)cc2O)n1-c1ccc(CN2CCC(C(=O)N3CCN([C@H]4C[C@@H](COc5nc(N6CC7CCC(C6)N7)c6cnc(-c7cccc(C)c7C)c(F)c6n5)N(C)C4)CC3)CC2)cc1 [Compound 56],< 0.1,0.1 to 1,< 0.1,0.1 to 1,> 1
CC(C)c1cc(C(=O)N2Cc3ccc(CN4CCN([C@H]5C[C@@H](COc6nc(N7CC8CCC(C7)N8)c7cnc(-c8ccccc8C(F)(F)F)c(F)c7n6)N(C)C5)CC4)cc3C2)c(O)cc1O [Compound 58],< 0.1,0.1 to 1,0.1 to 1,< 0.1,> 1
CCNC(=O)c1nnc(-c2cc(C(C)C)c(O)cc2O)n1-c1ccc(CN2CCC(CN3CCN([C@H]4C[C@@H](COc5nc(N6CC7CCC(C6)N7)c6cnc(-c7cccc(F)c7C)c(F)c6n5)N(C)C4)CC3)CC2)cc1 [Compound 83],< 0.1,–,< 0.1,< 0.1,> 1
COc1cccc2cccc(-c3ncc4c(N5CC6CCC(C5)N6)nc(OC[C@@H]5C[C@H](N6CCN(Cc7ccc8c(c7)CN(C(=O)c7cc(C(C)C)c(O)cc7O)C8)CC6)CN5C)nc4c3F)c12 [Compound 102],0.1 to 1,0.1 to 1,0.1 to 1,0.1 to 1,0.1 to 1
CCNC(=O)c1nnc(-c2cc(C(C)C)c(O)cc2O)n1-c1ccc(CN2CCN([C@H]3C[C@@H](COc4nc(N5CC6CCC(C5)N6)c5cnc(-c6cccc7cccc(OC)c67)c(F)c5n4)N(C)C3)CC2)cc1 [Compound 103],< 0.1,0.1 to 1,0.1 to 1,0.1 to 1,> 1
Cc1cccc2cccc(-c3ncc4c(N5CC6CCC(C5)N6)nc(OC[C@@H]5CC[C@H](CN6CCN(Cc7ccc(-n8c(C(=O)NC(C)C(F)(F)F)nnc8-c8cc(C(C)C)c(O)cc8O)cc7)CC6)N5C)nc4c3F)c12 (stereo partly shown) [Compound 107],0.1 to 1,0.1 to 1,0.1 to 1,0.1 to 1,0.1 to 1
C#Cc1cccc2cc(O)cc(-c3ncc4c(N5CC6CCC(C5)N6)nc(OCC5(CN6CCN(CC7CCN(Cc8ccc9c(c8)CN(C(=O)c8cc(C(C)C)c(O)cc8O)C9)CC7)CC6)CC5)nc4c3F)c12 [Compound 117],< 0.1,0.1 to 1,< 0.1,0.1 to 1,–
C#Cc1c(F)ccc2cc(O)cc(-c3ncc4c(N5CC6CCC(C5)N6)nc(OCC5(CN6CCN(C7CCN(Cc8ccc(-n9c(C(=O)NC(C)C(F)(F)F)nnc9-c9cc(C(C)C)c(O)cc9O)cc8)CC7)CC6)CC5)nc4c3F)c12 (stereo not shown) [Compound 160],< 0.1,< 0.1,< 0.1,< 0.1,–
C#Cc1c(F)ccc2cc(O)cc(-c3ncc4c(N5CC6CCC(C5)N6)nc(OCC5(CN6CCN(CC7CN(Cc8ccc9c(c8)CN(C(=O)c8cc(C(C)C)c(O)cc8O)C9)C7)CC6)CC5)nc4c3F)c12 [Compound 164],< 0.1,0.1 to 1,< 0.1,–,< 0.1
C#Cc1c(F)ccc2cc(O)cc(-c3ncc4c(N5CC6CCC(C5)N6)nc(OCC5(CN6CCN(CC7CN(Cc8ccc(-n9c(C(=O)NC(C)C(F)(F)F)nnc9-c9cc(C(C)C)c(O)cc9O)cc8)C7)CC6)CC5)nc4c3F)c12 (stereo not shown) [Compound 165],< 0.1,0.1 to 1,< 0.1,–,< 0.1
C#Cc1c(F)ccc2cc(O)cc(-c3ncc4c(N5CC6CCC(C5)N6)nc(OCC5(CN6CCN(CC7CN(Cc8ccc(-n9c(C(=O)NCC(F)(F)F)nnc9-c9cc(C(C)C)c(O)cc9O)cc8)C7)CC6)CC5)nc4c3F)c12 [Compound 166],< 0.1,< 0.1,< 0.1,–,< 0.1
C#Cc1c(F)ccc2cc(O)cc(-c3nc(OC)c4c(N5CC6CCC(C5)N6)nc(OCC5(CN6CCC(C7CCN(Cc8ccc9c(c8)CN(C(=O)c8cc(C(C)C)c(O)cc8O)C9)CC7)CC6)CC5)nc4c3F)c12 [Compound 186],< 0.1,–,< 0.1,–,< 0.1
C#Cc1c(F)ccc2cc(O)cc(-c3ncc4c(N5CC6CNC(C6)C5)nc(OCC5(CN6CCC(C7CCN(Cc8ccc9c(c8)CN(C(=O)c8cc(O)c(C(C)C)cc8O)C9)CC7)CC6)CC5)nc4c3F)c12 (stereo not shown) [Compound 187],0.1 to 1,–,> 1,–,0.1 to 1
C#Cc1c(F)ccc2cc(O)cc(-c3ncc4c(N5CC6CNC(C6)C5)nc(OCC5(CN6CCN(C7CCN(Cc8ccc(-n9c(C(=O)NC(C)C(F)(F)F)nnc9-c9cc(C(C)C)c(O)cc9O)cc8)CC7)CC6)CC5)nc4c3F)c12 (stereo not shown) [Compound 188],0.1 to 1,–,0.1 to 1,–,0.1 to 1
C#Cc1c(F)ccc2cc(O)cc(-c3nc(OC)c4c(N5CC6CNC(C6)C5)nc(OCC5(CN6CCN(Cc7ccc(-n8c(C(=O)NCC)nnc8-c8cc(C(C)C)c(O)cc8O)cc7)CC6)CC5)nc4c3F)c12 (stereo not shown) [Compound 189],< 0.1,–,< 0.1,–,< 0.1
C#Cc1c(F)ccc2cc(O)cc(-c3nc(OC)c4c(N5CC6CCC(C5)N6)nc(OCC5(CN6CCN(Cc7ccc8c(c7)CN(C(=O)c7cc(C(C)C)c(O)cc7O)C8)CC6)CC5)nc4c3F)c12 [Compound 190],< 0.1,–,< 0.1,–,< 0.1
C#Cc1c(F)ccc2cc(O)cc(-c3nc(OC)c4c(N5CC6CCC(C5)N6)nc(OCC5(CNCC6CN(Cc7ccc8c(c7)CN(C(=O)c7cc(C(C)C)c(O)cc7O)C8)CCO6)CC5)nc4c3F)c12 (stereo not shown) [Compound 191],< 0.1,–,0.1 to 1,–,< 0.1
C#Cc1c(F)ccc2cc(O)cc(-c3nc(OC)c4c(N5CC6CCC(C5)N6)nc(OCC5(CN6CCOC(CNCc7ccc8c(c7)CN(C(=O)c7cc(C(C)C)c(O)cc7O)C8)C6)CC5)nc4c3F)c12 (stereo not shown) [Compound 192],0.1 to 1,–,0.1 to 1,–,> 1
C#Cc1c(F)ccc2cc(O)cc(-c3ncc4c(N5CC6CCC(C5)N6)nc(OCC5CN(C6CN(Cc7ccc8c(c7)CN(C(=O)c7cc(C(C)C)c(O)cc7O)C8)C6)C5)nc4c3F)c12 [Compound 193],0.1 to 1,–,0.1 to 1,–,< 0.1
C#Cc1c(F)ccc2cc(O)cc(-c3ncc4c(N5CC6CCC(C5)N6)nc(OCC5CN(CC6(CNc7ccc8c(c7)CN(C(=O)c7cc(C(C)C)c(O)cc7O)C8)CC6)C5)nc4c3F)c12 [Compound 194],0.1 to 1,–,0.1 to 1,–,< 0.1
"C#Cc1cccc2cc(O)cc(-c3ncc4c(N5CC6CCC(C5)N6)nc(OCC5(CN6CCN(CC7CCN(Cc8ccc(-n9c(C(=O)NCC)nnc9-c9cc(C(C)C)c(O)cc9O)cc8)CC7)CC6)CC5)nc4c3F)c12 [Example 2, 4-(4-{[4-({4-[(1-{[(4-{3,8-diazabicyclo[3.2.1]octan-3-yl}-7-(8-ethynyl-3-hydroxynaphthalen-1-yl)-8-fluoropyrido[4,3-d]pyrimidin-2-yl)oxy]methyl}cyclopropyl)methyl]piperazin-1-yl}methyl)piperidin-1-yl]methyl}phenyl)-5-(2,4-dihydroxy-5-isopropylphenyl)-N-ethyl-1,2,4-triazole-3-carboxamide]",< 0.1,< 0.1,< 0.1,< 0.1,–
